According to patent US7989632B2, “Crystalline forms of solvated ilaprazole” (Il Yang Pharmaceutical Company, Ltd., priority 2006, dated 2011):

Legend:
[1] = Dynamic Vapor Sorption/Desorption (DVS) isotherm; format: physicochemical; details: for DVS weight loss at 5% RH: samples not dried prior to analysis; for DVS weight loss from 95 to 5% RH: desorption
Protocol: Dynamic Vapor Sorption/Desorption (DVS): Data were collected on a VTI SGA-100 moisture balance system. For sorption isotherms, a sorption range of 5 to 95% relative humidity (RH) and a desorption range of 95 to 5% RH in 10% RH increments were used for analysis. The samples were not dried prior to analysis. Equilibrium criteria used for analysis were less than 0.0100% weight change in 5 minutes with a maximum equilibration time of 3 hours if the weight criterion was not met. Data were not corrected for the initial moisture content of the samples.

[2] = tested on: gastric-acid related disorders; acid-related gastric and duodenal ulcers; assay: Phase 2 clinical studies conducted with ilaprazole; format: in vivo, humans; details: at the doses studied
[3] = tested on: gastric acid; assay: Phase 1 clinical studies conducted with ilaprazole; format: in vivo, humans; details: Phase 1, at the doses studied

Which “DVS weight loss at 5% RH” value [1] does the source give for `C1COCCO1.COc1ccnc(C[S+]([O-])c2nc3cc(-n4cccc4)ccc3[nH]2)c1C.COc1ccnc(C[S+]([O-])c2nc3cc(-n4cccc4)ccc3[nH]2)c1C` (racemic) [Form C, crystalline 1,4-dioxane/racemic ilaprazole hemi-solvate] here?
The value was about 1.2%.

And the “DVS weight loss from 95 to 5% RH” value [1]?
Its value is about 4.1%.

And the “DVS weight loss from 5 to 95% RH” value ([1]; sorption, 5 to 95% RH)?
Its value is about 1.1%.

With `C1CCOC1.COc1ccnc(C[S+]([O-])c2nc3cc(-n4cccc4)ccc3[nH]2)c1C.COc1ccnc(C[S+]([O-])c2nc3cc(-n4cccc4)ccc3[nH]2)c1C` (racemic) [Form D, crystalline THF/racemic ilaprazole hemisolvate] as the compound, how does the “DVS weight loss at 5% RH” value [1] read?
The value was about 0.6%.

What about the “DVS weight loss from 95 to 5% RH” value [1] of the same compound?
Its value is about 1.2%.

What about the “DVS weight gain from 5 to 95% RH” value ([1]; sorption, 5 to 95% RH) of the same compound?
The value was about 0.6%.

What does the source list for `COc1ccnc(C[S+]([O-])c2nc3cc(-n4cccc4)ccc3[nH]2)c1C` (stereo not drawn) [ilaprazole, 2[[(4-methoxy-3-methyl-2-pyridinyl)-methyl]sulfinyl]-5-(1H-pyrrol-1-yl) 1H-Benzimidazole]?
healing of ulcers ([2]; Phase 2, acid-related gastric and duodenal ulcers): promoted rapid healing; symptomatic relief ([2]; Phase 2, patients with gastric-acid related disorders): provided symptomatic relief; suppression of gastric acid [3]: suppression of gastric acid occurs over a 24-hour period
